Results as given in patent US9957271B2, “Substituted bicyclic aza-heterocycles and analogues as sirtuin modulators” (GlaxoSmithKline, LLC, priority 2012, dated 2018).

Biological target: T1, SIRT1 (Homo sapiens, UniProt Q96EB6)
T1 sequence (Q96EB6 1-747): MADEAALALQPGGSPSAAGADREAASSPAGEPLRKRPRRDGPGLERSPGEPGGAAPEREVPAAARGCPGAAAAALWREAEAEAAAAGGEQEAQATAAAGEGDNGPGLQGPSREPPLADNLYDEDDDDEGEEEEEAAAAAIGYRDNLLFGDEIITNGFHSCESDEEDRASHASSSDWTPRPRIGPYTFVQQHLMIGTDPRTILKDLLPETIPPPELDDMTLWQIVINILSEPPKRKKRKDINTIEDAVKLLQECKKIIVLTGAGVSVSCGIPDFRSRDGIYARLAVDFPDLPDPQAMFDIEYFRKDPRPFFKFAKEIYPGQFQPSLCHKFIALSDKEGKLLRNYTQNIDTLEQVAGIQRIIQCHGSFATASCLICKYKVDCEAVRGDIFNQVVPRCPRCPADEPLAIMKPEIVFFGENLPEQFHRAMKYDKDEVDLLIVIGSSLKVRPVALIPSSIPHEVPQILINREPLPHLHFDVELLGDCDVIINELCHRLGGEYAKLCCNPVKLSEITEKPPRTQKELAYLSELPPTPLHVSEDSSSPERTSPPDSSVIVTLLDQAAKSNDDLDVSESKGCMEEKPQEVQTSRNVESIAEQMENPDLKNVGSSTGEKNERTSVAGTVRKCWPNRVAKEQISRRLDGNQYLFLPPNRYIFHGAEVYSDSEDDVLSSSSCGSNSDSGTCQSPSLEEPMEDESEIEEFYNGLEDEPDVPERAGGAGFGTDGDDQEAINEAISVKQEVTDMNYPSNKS
Assay: TAMRA based mass spectrometry assay of SIRT1 activity
Format: biochemical
Conditions: TAMRA peptide substrate; for TAMRA EC1.5 (μM): concentration of test compound giving 150% activation of SIRT1; for Emax: percent maximum fold activation of SIRT1, read-out: TAMRA % Fold Act
Source text: Mass spectrometry based assays were used to identify modulators of SIRT1 activity. The TAMRA based assay utilized a peptide having 20 amino acid residues as follows: Ac-EE-K(biotin)-[…](Ac)NleSTEG-K(5TMR)-EE-NH2 (SEQ ID NO: 1), wherein K(Ac) is an acetylated lysine residue and Nle is a norleucine. The peptide was labeled with the fluorophore 5TMR (excitation 540 nm/emission 580 nm) at the C-terminus. The sequence of the peptide substrate was based on p53 with several modifications. In addition, the methionine residue naturally present in the sequence was replaced with the norleucine because the methionine may be susceptible to oxidation during synthesis and purification. The Trp based assay utilized a peptide having an amino acid residues as follows: Ac-R-H-K-K(Ac)-W-NH2 (SEQ ID NO: 2).
The TAMRA based mass spectrometry assay was conducted as follows: 0.5 μM peptide substrate and 120 μM βNAD^+ was incubated with 10 nM SIRT1 for 25 minutes at 25° C. in a reaction buffer (50 mM Tris-acetate pH 8, 137 mM NaCl, 2.7 mM KCl, 1 mM MgCl2, 5 mM DTT, 0.05% BSA). The SIRT1 protein was obtained by cloning the SirT1 gene into a T7-promoter containing vector, which was then transformed and expressed in BL21(DE3) bacterial cells. Test compound was added at varying concentrations to this reaction mixture and the resulting reactions were monitored. After the 25 minute incubation with SIRT1, 10 μL of 10% formic acid was added to stop the reaction. The resulting reactions were sealed and frozen for later mass spec analysis. Determination of the amount of deacetylated substrate peptide formed (or, alternatively, the amount of O-acetyl-ADP-ribose (OAADPR) generated) by the sirtuin-mediated NAD-dependent deacetylation reaction allowed for the precise measurement of relative SIRT1 activity in the presence of varying concentrations of the test compound versus control reactions lacking the test compound.
A control for inhibition of sirtuin activity was conducted by adding 1 μL of 500 mM nicotinamide as a negative control at the start of the reaction (e.g., permits determination of maximum sirtuin inhibition). A control for activation of sirtuin activity was conducted using 10 nM of sirtuin protein, with 1 μL of DMSO in place of compound, to determine the amount of deacetylation of the substrate at a given time point within the linear range of the assay. This time point was the same as that used for test compounds and, within the linear range, the endpoint represents a change in velocity.
For the above assay, SIRT1 protein was expressed and purified as follows. The SirT1 gene was cloned into a T7-promoter containing vector and transformed into BL21(DE3). The protein was expressed by induction with 1 mM IPTG as an N-terminal His-tag fusion protein at 18° C. overnight and harvested at 30,000×g. Cells were lysed with lysozyme in lysis buffer (50 mM Tris-HCl, 2 mM Tris[2-carboxyethyl]phosphine (TCEP), 10 μM ZnCl2, 200 mM NaCl) and further treated with sonication for […] for complete lysis. The protein was purified over a Ni-NTA column (Amersham) and fractions containing pure protein were pooled, concentrated and run over a sizing column (Sephadex S200 26/60 global). The peak containing soluble protein was collected and run on an Ion-exchange column (MonoQ). Gradient elution (200 mM-500 mM NaCl) yielded pure protein. This protein was concentrated and dialyzed against dialysis buffer (20 mM Tris-HCl, 2 mM TCEP) overnight. The protein was aliquoted and frozen at −80° C. until further use.

With `O=C(NCc1cccnc1)c1cnc2ccc(-c3cccc(C(F)(F)F)c3)nn12` [Compound 1] the “TAMRA EC1.5 (μM)” value was “B (EC1.5 1-25 μM)” and the Emax was < 350%.
For `O=C(Nc1nccs1)c1cnc2ccc(-c3cccc(C(F)(F)F)c3)nn12` [Compound 3], the “TAMRA EC1.5 (μM)” value was “B (EC1.5 1-25 μM)” and the Emax was < 350%.
With `O=C(Nc1ccccn1)c1cnc2ccc(-c3cccc(C(F)(F)F)c3)nn12` [Compound 4, N-(pyridin-2-yl)-6-(3-(trifluoromethyl)phenyl)imidazo[1,2-b]pyridazine-3-carboxamide] the “TAMRA EC1.5 (μM)” value was “B (EC1.5 1-25 μM)” and the Emax was < 350%.
In the case of `O=C(Nc1nc(CN2CCOCC2)cs1)c1cnc2ccc(-c3cccc(C(F)(F)F)c3)nn12` [Compound 6], the “TAMRA EC1.5 (μM)” value was “A (EC1.5<1 μM)” and the Emax was ≥ 350%.
In the case of `O=C(Nc1nccs1)c1cnc2ccc(-c3cccc(OC(F)(F)F)c3)nn12` [Compound 7], the “TAMRA EC1.5 (μM)” value was “B (EC1.5 1-25 μM)” and the Emax was < 350%.
With `O=C(Nc1nccs1)c1cnc2ccc(-c3cccc(N4CCOCC4)c3)nn12` [Compound 9] the “TAMRA EC1.5 (μM)” value was “C (EC1.5>25 μM)” and the Emax was < 350%.
`O=C(Nc1ccccn1)c1cnc2ccc(-c3cccc(N4CCOCC4)c3)nn12` [Compound 10] was tested, and the “TAMRA EC1.5 (μM)” value was “B (EC1.5 1-25 μM)” and the Emax was < 350%.
`CS(=O)(=O)c1cccc(-c2ccc3ncc(C(=O)Nc4ccccn4)n3n2)c1` [Compound 12] was tested, and the “TAMRA EC1.5 (μM)” value was “C (EC1.5>25 μM)” and the Emax was < 350%.
With `O=C(Nc1nccs1)c1cnc2ccc(-c3ccccc3OC(F)(F)F)nn12` [Compound 13] the “TAMRA EC1.5 (μM)” value was “A (EC1.5<1 μM)” and the Emax was ≥ 350%.
With `O=C(Nc1nccs1)c1cnc2ccc(-c3ccccc3C(F)(F)F)nn12` [Compound 15] the “TAMRA EC1.5 (μM)” value was “B (EC1.5 1-25 μM)” and the Emax was ≥ 350%.
In the case of `O=C(Nc1ccccn1)c1cnc2ccc(-c3ccccc3C(F)(F)F)nn12` [Compound 16], the “TAMRA EC1.5 (μM)” value was “A (EC1.5<1 μM)” and the Emax was ≥ 350%.
`O=C(Nc1ccncn1)c1cnc2ccc(-c3cccc(C(F)(F)F)c3)nn12` [Compound 18] was tested, and the “TAMRA EC1.5 (μM)” value was “B (EC1.5 1-25 μM)” and the Emax was < 350%.
`O=C(Nc1cccc(CN2CCOCC2)n1)c1cnc2ccc(-c3ccccc3C(F)(F)F)nn12` [Compound 19, N-(6-(morpholinomethyl)pyridin-2-yl)-6-(2-(trifluoromethyl)phenyl)imidazo[1,2-b]pyridazine-3-carboxamide] was tested, and the “TAMRA EC1.5 (μM)” value was “A (EC1.5<1 μM)” and the Emax was ≥ 350%.
`O=C(Nc1cccc(N2CCOCC2)n1)c1cnc2ccc(-c3ccccc3C(F)(F)F)nn12` [Compound 21] was tested, and the “TAMRA EC1.5 (μM)” value was “A (EC1.5<1 μM)” and the Emax was ≥ 350%.
`O=C(Nc1cccc(N2CCCC2)n1)c1cnc2ccc(-c3ccccc3C(F)(F)F)nn12` [Compound 22] was tested, and the “TAMRA EC1.5 (μM)” value was “A (EC1.5<1 μM)” and the Emax was ≥ 350%.
For `O=C(Nc1ccnc(N2CCOCC2)c1)c1cnc2ccc(-c3ccccc3C(F)(F)F)nn12` [Compound 24], the “TAMRA EC1.5 (μM)” value was “B (EC1.5 1-25 μM)” and the Emax was ≥ 350%.
For `O=C(Nc1nc(CN2CCOCC2)cs1)c1cnc2ccc(-c3cccc(Cl)c3)nn12` [Compound 27], the “TAMRA EC1.5 (μM)” value was “A (EC1.5<1 μM)” and the Emax was ≥ 350%.
For `O=C(Nc1cccc(CN2CCOCC2)n1)c1cnc2ccc(-c3cccc(F)c3)nn12` [Compound 28], the “TAMRA EC1.5 (μM)” value was “A (EC1.5<1 μM)” and the Emax was < 350%.
For `O=C(Nc1cccc(CN2CCOCC2)n1)c1cnc2ccc(-c3cc(F)ccc3F)nn12` [Compound 30], the “TAMRA EC1.5 (μM)” value was “B (EC1.5 1-25 μM)” and the Emax was < 350%.
For `O=C(Nc1nc(CN2CCOCC2)cs1)c1cnc2ccc(-c3cc(F)ccc3F)nn12` [Compound 31], the “TAMRA EC1.5 (μM)” value was “B (EC1.5 1-25 μM)” and the Emax was < 350%.
With `O=C(Nc1nccs1)c1cnc2ccc(-c3ccccc3C(F)F)nn12` [Compound 33, 6-(2-(difluoromethyl)phenyl)-N-(thiazol-2-yl)imidazo[1,2-b]pyridazine-3-carboxamide] the “TAMRA EC1.5 (μM)” value was “B (EC1.5 1-25 μM)” and the Emax was < 350%.
In the case of `O=C(Nc1cccc(N2CCOCC2)n1)c1cnc2ccc(-c3ccccc3C(F)F)nn12` [Compound 36], the “TAMRA EC1.5 (μM)” value was “A (EC1.5<1 μM)” and the Emax was ≥ 350%.
In the case of `O=C(Nc1cccc(N2CCCC2)n1)c1cnc2ccc(-c3ccccc3C(F)F)nn12` [Compound 37], the “TAMRA EC1.5 (μM)” value was “A (EC1.5<1 μM)” and the Emax was ≥ 350%.
With `O=C(Nc1ccnc(N2CCOCC2)c1)c1cnc2ccc(-c3ccccc3C(F)F)nn12` [Compound 39] the “TAMRA EC1.5 (μM)” value was “A (EC1.5<1 μM)” and the Emax was ≥ 350%.
In the case of `O=C(Nc1ccnc(N2CCCC2)c1)c1cnc2ccc(-c3ccccc3C(F)F)nn12` [Compound 40], the “TAMRA EC1.5 (μM)” value was “A (EC1.5<1 μM)” and the Emax was ≥ 350%.
For `O=C(Nc1nc(CN2CCOCC2)cs1)c1cnc2ccc(-c3ccc(F)cc3F)nn12` [Compound 42], the “TAMRA EC1.5 (μM)” value was “B (EC1.5 1-25 μM)” and the Emax was < 350%.
In the case of `O=C(Nc1cccc(CN2CCOCC2)n1)c1cnc2ccc(-c3cc(F)cc(F)c3)nn12` [Compound 45], the “TAMRA EC1.5 (μM)” value was “B (EC1.5 1-25 μM)” and the Emax was < 350%.
`O=C(Nc1nc(CN2CCOCC2)cs1)c1cnc2ccc(-c3cc(F)cc(F)c3)nn12` [Compound 46] was tested, and the “TAMRA EC1.5 (μM)” value was “B (EC1.5 1-25 μM)” and the Emax was < 350%.
For `O=C(Nc1nc(CN2CCOCC2)cs1)c1cnc2ccc(-c3cccc(F)c3F)nn12` [Compound 48], the “TAMRA EC1.5 (μM)” value was “B (EC1.5 1-25 μM)” and the Emax was ≥ 350%.
For `O=C(Nc1cccc(N2CCC2)n1)c1cnc2ccc(-c3ccccc3C(F)(F)F)nn12` [Compound 49], the “TAMRA EC1.5 (μM)” value was “A (EC1.5<1 μM)” and the Emax was ≥ 350%.
`O=C(Nc1ccnc(N2CCC2)c1)c1cnc2ccc(-c3ccccc3C(F)F)nn12` [Compound 52] was tested, and the “TAMRA EC1.5 (μM)” value was “A (EC1.5<1 μM)” and the Emax was ≥ 350%.
For `Cc1noc(C)c1-c1ccc2ncc(C(=O)Nc3ccnc(N4CCCC4)c3)n2n1` [Compound 54, 6-(3,5-dimethylisoxazol-4-yl)-N-(2-(pyrrolidin-1-yl)pyridin-4-yl)imidazo[1,2-b]pyridazine-3-carboxamide], the “TAMRA EC1.5 (μM)” value was “C (EC1.5>25 μM)” and the Emax was < 350%.
In the case of `Cc1noc(C)c1-c1ccc2ncc(C(=O)Nc3ccnc(N4CCC4)c3)n2n1` [Compound 55], the “TAMRA EC1.5 (μM)” value was “C (EC1.5>25 μM)” and the Emax was < 350%.
In the case of `Cn1cc(-c2ccc3ncc(C(=O)Nc4ccnc(N5CCCC5)c4)n3n2)cn1` [Compound 57], the “TAMRA EC1.5 (μM)” value was “C (EC1.5>25 μM)” and the Emax was < 350%.
In the case of `Cc1ncccc1-c1ccc2ncc(C(=O)Nc3cccc(N4CCOCC4)n3)n2n1` [Compound 58], the “TAMRA EC1.5 (μM)” value was “B (EC1.5 1-25 μM)” and the Emax was < 350%.
In the case of `O=C(Nc1cccc(N2CCOCC2)n1)c1cnc2ccc(-c3cncc(C(F)F)c3)nn12` [Compound 60], the “TAMRA EC1.5 (μM)” value was “A (EC1.5<1 μM)” and the Emax was < 350%.
With `O=C(Nc1ccnc(N2CCCC2)c1)c1cnc2ccc(-c3cncc(C(F)F)c3)nn12` [Compound 61] the “TAMRA EC1.5 (μM)” value was “B (EC1.5 1-25 μM)” and the Emax was < 350%.
